{"source": "paper PMC6508677", "about": "“Identification of druggable small molecule antagonists of the Plasmodium falciparum hexose transporter PfHT and assessment of ligand access to the glucose permeation pathway via FLAG-mediated protein engineering” (PLoS ONE, 2019)", "target": "T1, PfHT (Plasmodium falciparum, UniProt Q7KWJ5)", "T1 sequence (Q7KWJ5 1-504)": "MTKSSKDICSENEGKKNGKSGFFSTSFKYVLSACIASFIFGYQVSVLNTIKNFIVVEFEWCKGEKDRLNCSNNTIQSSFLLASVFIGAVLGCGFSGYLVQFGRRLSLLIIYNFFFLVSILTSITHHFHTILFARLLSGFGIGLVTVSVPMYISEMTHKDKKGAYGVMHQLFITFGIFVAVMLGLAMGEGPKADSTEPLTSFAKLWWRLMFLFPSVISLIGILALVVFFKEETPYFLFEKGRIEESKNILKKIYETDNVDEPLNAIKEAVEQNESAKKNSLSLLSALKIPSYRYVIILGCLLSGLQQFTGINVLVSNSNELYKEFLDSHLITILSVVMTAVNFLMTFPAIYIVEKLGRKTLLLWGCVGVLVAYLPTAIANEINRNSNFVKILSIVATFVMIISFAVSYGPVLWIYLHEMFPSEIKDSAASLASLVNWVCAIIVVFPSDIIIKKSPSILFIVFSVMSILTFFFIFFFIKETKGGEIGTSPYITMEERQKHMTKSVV", "test": "2-DG uptake by HEK293 cells overexpressing PfHT", "type": "cell-based", "set-up": "expressed in transfected cells; host or cells: HEK293 (HEK293-FLIP, native hGLUT1 knocked down by shRNA)", "excerpt": "Generation of HEK293 cells overexpressing PfHT and human GLUTs 1–4 were described elsewhere. Briefly, HEK293 cells were transfected with pcDNA3.1 FLII12Pglu-7006 (Addgene), containing the fluorescence resonance energy transfer (FRET) glucose sensor (HEK293-FLIP) and PfHT, human GLUT1 (hGLUT1), hGLUT2, hGLUT3, hGLUT4, hGLUT5 or hGLUT8 using Optifect (Life Technologies) according to manufacturer’s specifications. To increase retention of GLUT8 at the plasma membrane, the dileucine sorting signal E^7E^8XXXLL was modified to R^7R^8XXXLL as described in [17]. Stable transfectants were selected for G418 and hygromycin resistance to select for FRET sensor and hexose transporter, respectively. HEK293-FLIP cells were also used to generate cells stably transfected with FLAG-tagged PfHT (FTPfHT). FLAG tag ([…]) followed by a triple glycine linker and a tobacco etch virus (TEV) protease site (ENLYFQS) followed by a triple glycine linker was added to the N-terminus of PfHT via PCR [18] using Phusion Hot Start II High-Fidelity DNA Polymerase (Fisher Scientific). Single clones were selected by comparing their abilities to transport glucose as assayed via FRET and radiolabeled hexose uptake. In all cell lines, except for HEK293 cells overexpressing hGLUT1 and hGLUT5, native hGLUT1 was knocked down using shRNA as described elsewhere. Transcript levels of the individual GLUTs expressed in each cell line are as described in [13, 15] and in S1 Fig.\nGlucose uptake by P. falciparum was performed essentially as described. P. falciparum strain 3D7 was cultured in 100 mm tissue culture dishes (Techno Plastic Products) in a 2% suspension of human erythrocytes and RPMI 1640 medium until reaching > 7.5% parasitemia. Cells were pelleted via centrifugation and resuspended in RPMI 1640 medium. To determine the uptake of radiolabeled glucose into the parasite, parasites were isolated from infected erythrocytes by permeablization with saponin (0.05 w/v), followed by centrifugation, aspiration of supernatant and washing of the pellet 3X with saline solution (135 mM NaCl, 2 mM KCl, 25 mM HEPES, 0.2 mM glucose and 1 mM MgCl2; pH 7.1) to remove cellular debris. WU-1 or DMSO vehicle were added to 100 μl parasites (resuspended in saline) 5 min prior to the addition of 100 μl [^14C]2-DOG (0.2- μCi/ml final concentration). 2-DG uptake was stopped after 2 min by layering the entire reaction over 300 μl of an oil mixture (5:4 mix of dibutyl phthalate / dinonyl phthalate) in Eppendorf tubes and centrifuged at 15,850 × g for 2 mins. The ratio of the estimated intracellular concentration of radiolabel relative to the extracellular concentration were calculated as described. Uptake of radiolabeled hexose into HEK293 cells was measured in glucose-free HBSS as described previously. Briefly, cells were plated at 400,000 cells/well overnight at 37°C in 24-well plates pre-treated with PEI. After 30-min incubation at 37°C in glucose-free HBSS in the presence of vehicle or increasing concentrations of compound, 2-DG uptake was measured in glucose-free HBSS for 4 min at 37°C. Cultures were washed in ice-cold 1X PBS and lysed in 0.1% Triton X-100 in 1X PBS. Radiolabeled hexose uptake was determined by liquid scintillation counting (Ultima Gold, Thermo Fisher) and normalized to total protein per well. Uptake data are plotted as percent uptake relative to vehicle-treated cells. Kinetic analyses were performed using the indicated concentrations of substrate and WU-1, with quenching of uptake after 1 min incubation. Incubation times had been previously determined as being in the linear range of time-dependent radiolabeled hexose uptake (2 min for 2-DG uptake into freed parasites; 2 and 4 min for D-Frc and 2-DG uptake HEK cell lines, respectively). Data were fit by least squares nonlinear regression analysis using GraphPad Prism 6.0 software.", "note": "Several values for one entry are separate records, joined by “and”; a condition that tells them apart may be missing. Equal entries are not always repeated.", "data": [{"compound": "C=C1[C@@H](C)[C@H]2[C@H](Cc3ccccc3)NC(=O)[C@]23OC(=O)/C=C/[C@H](O)CCC[C@@H](C)C/C=C/[C@H]3[C@@H]1O", "note": "[CB, cytochalasin B]", "values": [{"measurement": "IC50", "setting": "AVE IC50 (µM), PfHT, 2-DG Uptake, average of Expt 1-3", "value": 10.9, "unit": "µM"}, {"measurement": "remaining activity at 0.001 µM", "setting": "HEK293, 4 min, read-out: 2-DG Uptake AVE, PfHT, concentration 0.001 µM, Expt 1-3", "value": 100, "unit": "%"}, {"measurement": "remaining activity at 0.3906 µM", "setting": "HEK293, 4 min, read-out: 2-DG Uptake AVE, PfHT, concentration 0.3906 µM", "value": 95.3, "unit": "%"}, {"measurement": "remaining activity at 0.7812 µM", "setting": "HEK293, 4 min, read-out: 2-DG Uptake AVE, PfHT, concentration 0.7812 µM", "value": 96.2, "unit": "%"}, {"measurement": "remaining activity at 1.56 µM", "setting": "HEK293, 4 min, read-out: 2-DG Uptake AVE, PfHT, concentration 1.56 µM", "value": 90.6, "unit": "%"}, {"measurement": "remaining activity at 3.125 µM", "setting": "HEK293, 4 min, read-out: 2-DG Uptake AVE, PfHT, concentration 3.125 µM", "value": 71, "unit": "%"}, {"measurement": "remaining activity at 6.25 µM", "setting": "HEK293, 4 min, read-out: 2-DG Uptake AVE, PfHT, concentration 6.25 µM", "value": 64.5, "unit": "%"}, {"measurement": "remaining activity at 12.5 µM", "setting": "HEK293, 4 min, read-out: 2-DG Uptake AVE, PfHT, concentration 12.5 µM", "value": 47.3, "unit": "%"}, {"measurement": "remaining activity at 25 µM", "setting": "HEK293, 4 min, read-out: 2-DG Uptake AVE, PfHT, concentration 25 µM", "value": 30.6, "unit": "%"}, {"measurement": "remaining activity at 50 µM", "setting": "HEK293, 4 min, read-out: 2-DG Uptake AVE, PfHT, concentration 50 µM", "value": 22.1, "unit": "%"}, {"measurement": "remaining activity at 100 µM", "setting": "HEK293, 4 min, read-out: 2-DG Uptake AVE, PfHT, concentration 100 µM", "value": 12.7, "unit": "%"}, {"measurement": "remaining activity at 200 µM", "setting": "HEK293, 4 min, read-out: 2-DG Uptake AVE, PfHT, concentration 200 µM", "value": 7.58, "unit": "%"}, {"measurement": "remaining activity at 400 µM", "setting": "HEK293, 4 min, read-out: 2-DG Uptake AVE, PfHT, concentration 400 µM", "value": 4.31, "unit": "%"}, {"measurement": "IC50", "setting": "IC50 (µM), PfHT, 2-DG Uptake, single experiments Expt 1-3", "value": "10.3 µM and 12.6 µM and 9.78 µM"}, {"measurement": "IC50", "setting": "IC50 for inhibition of 2-DG uptake, HEK293 cells overexpressing PfHT, mean/reported value", "value": "10.9 ± 0.9", "unit": "µM"}]}]}
